Tested on: T cells generated with E. coli expressed polytope
Assay: ELISPOT with in vitro translated epitope peptides on the polytope-generated T cell line (FIG. 10)
Format: cell-based, human
Description: An exemplary synthetic DNA template for creating neoepitope peptides in vitro is depicted below, and the corresponding sequences are shown in SEQ ID NO:18, SEQ ID NO:19, SEQ ID NO:20, and SEQ ID NO:21 respectively.
One template strand oligo per epitope plus sense strand universal promoter oligo was used. […] Rather the reaction required simply adding annealed oligos to expression mix, and the mixture was allowed to react for 2 hours.

Row | Sequence | Recognition of epitope by T cells in the T cell line
1 | FMRPHERNGFTVLCPKNMIIKPGKI [E6] | recognized by T cells
2 | WQAGILARNLVPMVATVQGQNLKYQ (IVT&T peptide9) | recognized by T cells

Source: patent US20230236172A1, “T Cells That Respond To Patient Neoepitopes” (NantCell, Inc., priority 2020, published 2023)
